According to ChEMBL document CHEMBL5375999, “Discovery of a Dual Tubulin and Neuropilin-1 (NRP1) Inhibitor with Potent In Vivo Anti-Tumor Activity via Pharmacophore-based Docking Screening, Structure Optimization, and Biological Evaluation” (J Med Chem, 2023):
The source made the active and inactive calls. The rule behind the calls is not given here.

Experiments:
Tubulin (Homo sapiens) = Tubulin (Homo sapiens) (UniProt P68371+Q9H4B7+P0DPH7+P68366+Q13509+Q71U36+P04350+Q3ZCM7+P07437+P68363+Q9BQE3+Q6PEY2+Q13885+Q9BVA1+Q9BUF5); test: Inhibition of tubulin polymerization in human PC-3 cells assessed as increase in microtubule dispersion incubated for 48 hrs by immunofluorescence assay; assay type: cell-based; details: dose 0.1-12.5 µM
PC-3 [1] = test: Induction of apoptosis in human PC-3 cells assessed as increase in cleaved caspase-3 expression at 0.5 to 12.5 uM incubated for 48 hrs by Western blotting analysis; assay type: functional, cell-based; details: dose 0.5-12.5 µM
PC-3 [2] = test: Antiangiogenesis activity in human PC-3 cells assessed as inhibition of tube formation incubated for 8 to 15 hrs by matrigel based inverted microscopic analysis; assay type: functional, cell-based; details: dose 0.1-12.5 µM, time 8-15 hrs
PC-3 [3] = test: Induction of apoptosis in human PC-3 cells assessed as necrotic cells at 0.5 uM by Annexin-V FITC staining based flow cytometry analysis (reference value: 0.059%); assay type: functional
[4] = AUC in Sprague-Dawley rat at 1.5 mg/kg, po measured upto 24 hrs by LC-MS/MS analysis; assay type: ADME, organism-based; set-up: dose 1.5 mg/kg, time < 24 hrs, route po; details: in vivo
[5] = target: AP2-associated protein kinase 1 (Homo sapiens, UniProt Q2M2I8); test: Inhibition of AAK1 (unknown origin)
[6] = target: Cyclin-dependent kinase 4 (Homo sapiens, UniProt P11802); test: Inhibition of CDK4 (unknown origin)
Chain of Cyclin-dependent kinase 4 (P11802 whole entry): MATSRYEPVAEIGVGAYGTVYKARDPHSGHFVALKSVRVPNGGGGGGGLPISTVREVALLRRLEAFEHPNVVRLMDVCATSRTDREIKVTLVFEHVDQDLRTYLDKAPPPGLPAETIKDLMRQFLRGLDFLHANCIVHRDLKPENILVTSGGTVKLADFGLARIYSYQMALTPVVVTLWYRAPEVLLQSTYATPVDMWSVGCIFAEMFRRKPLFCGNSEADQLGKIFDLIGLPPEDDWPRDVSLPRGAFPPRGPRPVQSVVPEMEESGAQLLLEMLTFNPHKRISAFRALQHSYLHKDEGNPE

PC-3 [7] = test: Cytotoxicity against human PC-3 cells assessed as inhibition of cell viability incubated for 48 hrs by MTT assay; assay type: functional, cell-based; details: PC-3, 48 h
[8] = target: Serine/threonine-protein kinase pim-1 (Homo sapiens, UniProt P11309); test: Inhibition of PIM1 (unknown origin)
[9] = target: Atypical kinase COQ8A, mitochondrial (Homo sapiens, UniProt Q8NI60); test: Inhibition of ADCK3 (unknown origin)
[10] = target: Vascular endothelial growth factor receptor 2 (Homo sapiens, UniProt P35968); test: Inhibition of VEGF-induced VEGFR2 signal pathway in HUVECs assessed as reduction in p-VEGFR2 level at 12.5 uM relative to control; assay type: cell-based; details: HUVEC
[11] = target: Cyclin-dependent kinase 3 (Homo sapiens, UniProt Q00526); test: Inhibition of CDK3 (unknown origin)
Chain of Cyclin-dependent kinase 3 (Q00526 whole entry): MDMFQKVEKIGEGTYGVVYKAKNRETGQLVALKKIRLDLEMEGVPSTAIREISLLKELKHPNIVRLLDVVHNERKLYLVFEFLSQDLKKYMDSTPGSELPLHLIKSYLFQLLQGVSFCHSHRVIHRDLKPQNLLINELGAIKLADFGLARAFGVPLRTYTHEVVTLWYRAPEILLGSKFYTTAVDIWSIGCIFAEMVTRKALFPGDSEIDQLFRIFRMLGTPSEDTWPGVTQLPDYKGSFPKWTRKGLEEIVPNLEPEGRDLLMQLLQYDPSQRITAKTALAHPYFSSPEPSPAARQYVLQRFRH

[12] = Half life in Sprague-Dawley rat at 1.5 mg/kg, po measured upto 24 hrs by LC-MS/MS analysis; assay type: ADME, organism-based; details: in vivo
PC-3 [13] = test: Induction of cell cycle arrest in human PC-3 cells assessed as accumulation of cells at G2/M phase at 12.5 uM by flow cytometry analysis (reference value: 3.24%); assay type: functional
[14] = target: Tyrosine-protein kinase Fgr (Homo sapiens, UniProt P09769); test: Inhibition of FGR (unknown origin)
Chain of Tyrosine-protein kinase Fgr (P09769 whole entry): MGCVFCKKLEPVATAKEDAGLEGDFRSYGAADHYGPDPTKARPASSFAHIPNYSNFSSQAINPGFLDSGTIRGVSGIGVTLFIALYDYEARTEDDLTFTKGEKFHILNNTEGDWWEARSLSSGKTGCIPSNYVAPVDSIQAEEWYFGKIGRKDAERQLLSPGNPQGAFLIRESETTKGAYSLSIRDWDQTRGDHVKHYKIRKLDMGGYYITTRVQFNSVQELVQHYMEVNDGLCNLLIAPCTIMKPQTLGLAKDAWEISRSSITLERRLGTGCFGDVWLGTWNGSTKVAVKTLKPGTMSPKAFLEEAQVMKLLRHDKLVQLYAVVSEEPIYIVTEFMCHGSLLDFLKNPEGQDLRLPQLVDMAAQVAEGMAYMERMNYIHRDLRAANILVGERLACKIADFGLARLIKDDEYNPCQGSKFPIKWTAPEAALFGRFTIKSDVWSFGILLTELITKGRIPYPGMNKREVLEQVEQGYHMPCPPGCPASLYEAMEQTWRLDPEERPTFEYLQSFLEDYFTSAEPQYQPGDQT

PC-3 [15] = test: Induction of apoptosis in human PC-3 cells assessed as late apoptotic cells at 12.5 uM by Annexin-V FITC staining based flow cytometry analysis (reference value: 1.67%); assay type: functional
PC-3 [16] = test: Induction of cell cycle arrest in human PC-3 cells assessed as G0/G1 phase cells at 2.5 uM by flow cytometry analysis (reference value: 94.76%); assay type: functional
CDK6/cyclin D3 = CDK6/cyclin D3 (Homo sapiens, UniProt Q00534); test: Inhibition of CDK6/Cyclin D3 (unknown origin); assay type: protein-complex assay
[17] = target: RAC-beta serine/threonine-protein kinase (Homo sapiens, UniProt P31751); test: Inhibition of AKT2 (unknown origin)
Tubulin = test: Inhibition of tubulin polymerization (unknown origin) by spectrophotometric analysis; assay type: protein-complex assay, Homo sapiens
HUVEC [18] = test: Antiinvasive activity against HUVECs at 0.1 to 12.5 uM incubated for 24 hrs by crystal violet staining based optical microscopic analysis; assay type: functional, cell-based; details: Homo sapiens, dose 0.1-12.5 µM
[19] = Cytotoxicity against human PrEC cells assessed as inhibition of cell viability incubated for 48 hrs by MTT assay; assay type: toxicity, cell-based
[20] = target: RAC-gamma serine/threonine-protein kinase (Homo sapiens, UniProt Q9Y243); test: Inhibition of AKT3 (unknown origin)
Activin receptor type-1 = Activin receptor type-1 (Homo sapiens, UniProt Q04771); test: Inhibition of ACVR1 (unknown origin)
Chain of Activin receptor type-1 (Q04771 whole entry): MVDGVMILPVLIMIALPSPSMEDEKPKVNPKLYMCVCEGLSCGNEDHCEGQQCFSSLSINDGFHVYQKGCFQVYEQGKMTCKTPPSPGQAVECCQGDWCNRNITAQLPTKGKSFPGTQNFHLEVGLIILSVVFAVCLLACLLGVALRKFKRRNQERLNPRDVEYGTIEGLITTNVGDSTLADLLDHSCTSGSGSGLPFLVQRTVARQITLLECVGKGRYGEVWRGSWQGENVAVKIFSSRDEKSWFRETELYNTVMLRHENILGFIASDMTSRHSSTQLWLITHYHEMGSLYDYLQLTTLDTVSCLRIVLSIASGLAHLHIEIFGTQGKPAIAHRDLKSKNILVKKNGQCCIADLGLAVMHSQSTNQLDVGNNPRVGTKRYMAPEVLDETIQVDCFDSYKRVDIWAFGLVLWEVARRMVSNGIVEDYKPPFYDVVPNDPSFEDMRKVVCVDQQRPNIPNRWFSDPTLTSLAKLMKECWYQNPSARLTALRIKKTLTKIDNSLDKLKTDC

[21] = target: Serine/threonine-protein kinase 4 (Homo sapiens, UniProt Q13043); test: Inhibition of MST1 (unknown origin)
Chain of Serine/threonine-protein kinase 4 (Q13043 whole entry): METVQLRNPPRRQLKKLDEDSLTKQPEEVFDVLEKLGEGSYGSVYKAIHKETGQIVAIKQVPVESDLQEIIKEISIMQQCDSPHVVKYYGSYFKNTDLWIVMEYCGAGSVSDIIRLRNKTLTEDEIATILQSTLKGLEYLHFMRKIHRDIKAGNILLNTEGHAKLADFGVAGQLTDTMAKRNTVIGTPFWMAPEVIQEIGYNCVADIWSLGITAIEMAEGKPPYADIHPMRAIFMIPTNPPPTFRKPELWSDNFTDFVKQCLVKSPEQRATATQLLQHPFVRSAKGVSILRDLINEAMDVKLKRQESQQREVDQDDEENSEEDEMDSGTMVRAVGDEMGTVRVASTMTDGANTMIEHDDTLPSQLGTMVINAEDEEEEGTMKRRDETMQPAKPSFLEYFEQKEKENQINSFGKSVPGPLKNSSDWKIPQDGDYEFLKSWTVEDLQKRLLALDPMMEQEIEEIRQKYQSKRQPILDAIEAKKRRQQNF

[22] = target: Vascular endothelial growth factor receptor 3 (Homo sapiens, UniProt P35916); test: Inhibition of VEGFR3 (unknown origin)
PC-3 [23] = test: Antitumor activity against human PC-3 cells xenografted in BALB/c nude mouse assessed as reduction in tumor volume at 5 to 10 mg/kg, ip administered every 4 days for 20 days; assay type: functional, organism-based; details: dose 5-10 mg/kg, time 20.0 day
PC-3 [24] = test: Induction of apoptosis in human PC-3 cells assessed as necrotic cells at 2.5 uM by Annexin-V FITC staining based flow cytometry analysis (reference value: 0.059%); assay type: functional
[25] = target: Cyclin-dependent kinase 7 (Homo sapiens, UniProt P50613); test: Inhibition of CDK7 (unknown origin)
Chain of Cyclin-dependent kinase 7 (P50613 whole entry): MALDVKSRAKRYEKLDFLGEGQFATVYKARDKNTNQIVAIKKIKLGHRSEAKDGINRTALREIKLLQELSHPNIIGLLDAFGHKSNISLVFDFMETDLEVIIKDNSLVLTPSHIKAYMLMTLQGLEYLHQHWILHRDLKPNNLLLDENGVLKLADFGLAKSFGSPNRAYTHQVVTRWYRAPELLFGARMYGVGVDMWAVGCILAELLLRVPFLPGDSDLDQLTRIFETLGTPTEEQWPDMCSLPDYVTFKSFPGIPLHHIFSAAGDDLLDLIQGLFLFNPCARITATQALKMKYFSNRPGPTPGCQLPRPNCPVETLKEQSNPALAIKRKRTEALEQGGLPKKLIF

HUVEC [26] = test: Antimigratory activity against HUVECs at 0.1 to 12.5 uM incubated for 24 to 48 hrs by wound healing assay; assay type: functional, cell-based; details: Homo sapiens, dose 0.1-12.5 µM, time 24-48 hrs
[27] = target: Vascular endothelial growth factor receptor 1 (Homo sapiens, UniProt P17948); test: Inhibition of VEGFR1 (unknown origin)
Chain of Vascular endothelial growth factor receptor 1 (P17948 whole entry): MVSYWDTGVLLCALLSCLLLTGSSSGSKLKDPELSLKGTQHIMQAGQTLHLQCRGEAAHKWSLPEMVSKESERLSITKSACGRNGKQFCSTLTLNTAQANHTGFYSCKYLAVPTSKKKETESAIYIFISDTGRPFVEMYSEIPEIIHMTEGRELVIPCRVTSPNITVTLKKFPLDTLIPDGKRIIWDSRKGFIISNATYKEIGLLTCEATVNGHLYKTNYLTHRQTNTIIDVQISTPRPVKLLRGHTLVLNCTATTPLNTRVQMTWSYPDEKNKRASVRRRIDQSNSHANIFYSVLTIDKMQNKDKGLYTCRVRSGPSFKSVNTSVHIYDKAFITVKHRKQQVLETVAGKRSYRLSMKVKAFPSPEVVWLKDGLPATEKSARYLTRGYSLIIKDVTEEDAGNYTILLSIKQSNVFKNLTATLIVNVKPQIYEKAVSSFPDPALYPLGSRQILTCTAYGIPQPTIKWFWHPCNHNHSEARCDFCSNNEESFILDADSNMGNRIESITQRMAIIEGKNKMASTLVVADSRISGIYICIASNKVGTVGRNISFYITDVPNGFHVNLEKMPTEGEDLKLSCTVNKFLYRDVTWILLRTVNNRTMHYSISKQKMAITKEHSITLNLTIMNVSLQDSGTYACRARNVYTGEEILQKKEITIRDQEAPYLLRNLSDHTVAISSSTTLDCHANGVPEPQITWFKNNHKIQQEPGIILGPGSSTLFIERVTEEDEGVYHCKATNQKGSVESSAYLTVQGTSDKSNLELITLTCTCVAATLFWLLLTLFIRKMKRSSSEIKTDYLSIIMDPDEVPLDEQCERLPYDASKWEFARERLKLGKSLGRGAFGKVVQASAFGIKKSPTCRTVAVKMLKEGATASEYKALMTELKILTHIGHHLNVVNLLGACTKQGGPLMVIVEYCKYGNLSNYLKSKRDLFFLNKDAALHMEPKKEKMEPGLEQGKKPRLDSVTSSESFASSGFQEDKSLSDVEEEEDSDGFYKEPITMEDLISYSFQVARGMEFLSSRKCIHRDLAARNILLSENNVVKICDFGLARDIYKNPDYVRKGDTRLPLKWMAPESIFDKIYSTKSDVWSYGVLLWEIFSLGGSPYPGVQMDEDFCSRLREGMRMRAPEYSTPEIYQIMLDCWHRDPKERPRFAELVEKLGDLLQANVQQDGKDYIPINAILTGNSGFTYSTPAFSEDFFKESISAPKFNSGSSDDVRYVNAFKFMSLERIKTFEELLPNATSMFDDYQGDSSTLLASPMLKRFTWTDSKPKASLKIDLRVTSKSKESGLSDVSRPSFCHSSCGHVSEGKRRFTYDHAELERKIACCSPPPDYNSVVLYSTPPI

PC-3 [28] = test: Induction of apoptosis in human PC-3 cells assessed as increase in cleaved PARP expression at 0.5 to 12.5 uM incubated for 48 hrs by Western blotting analysis; assay type: functional, cell-based; details: dose 0.5-12.5 µM
[29] = Toxicity in BALB/c mouse xenografted with human PC-3 cells assessed as change in spleen morphology at 5 to 10 mg/kg, ip administered every 4 days for 20 days by H and E staining based inverted microscopic assay; assay type: organism-based; details: in vivo, 480 h, dose 5-10 mg/kg, time 20 day
[30] = Toxicity in BALB/c mouse xenografted with human PC-3 cells assessed as change in liver morphology at 5 to 10 mg/kg, ip administered every 4 days for 20 days by H and E staining based inverted microscopic assay; assay type: organism-based; details: in vivo, 480 h, dose 5-10 mg/kg, time 20 day
[31] = target: Serine/threonine-protein kinase ICK (Homo sapiens, UniProt Q9UPZ9); test: Inhibition of ICK (unknown origin)
Chain of Serine/threonine-protein kinase ICK (Q9UPZ9 whole entry, the tested form may be a part): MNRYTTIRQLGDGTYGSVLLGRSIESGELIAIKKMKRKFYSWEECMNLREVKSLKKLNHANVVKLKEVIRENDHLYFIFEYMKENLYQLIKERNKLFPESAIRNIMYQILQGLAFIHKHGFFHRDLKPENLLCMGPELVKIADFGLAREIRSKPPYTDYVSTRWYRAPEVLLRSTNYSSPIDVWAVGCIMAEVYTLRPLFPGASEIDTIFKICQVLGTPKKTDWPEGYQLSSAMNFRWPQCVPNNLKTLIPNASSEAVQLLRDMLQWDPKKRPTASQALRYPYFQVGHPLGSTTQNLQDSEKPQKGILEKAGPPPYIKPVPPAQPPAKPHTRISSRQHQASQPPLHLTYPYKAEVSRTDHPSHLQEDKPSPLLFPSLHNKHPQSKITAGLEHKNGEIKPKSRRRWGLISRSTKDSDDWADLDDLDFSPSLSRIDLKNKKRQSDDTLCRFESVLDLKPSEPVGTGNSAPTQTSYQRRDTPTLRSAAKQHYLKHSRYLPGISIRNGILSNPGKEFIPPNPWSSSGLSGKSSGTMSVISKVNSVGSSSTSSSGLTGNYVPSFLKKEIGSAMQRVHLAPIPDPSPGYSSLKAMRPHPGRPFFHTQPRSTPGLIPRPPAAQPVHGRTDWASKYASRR

[32] = target: Ankyrin repeat and protein kinase domain-containing protein 1 (Homo sapiens, UniProt Q8NFD2); test: Inhibition of ANKK1 (unknown origin)
PC-3 [33] = test: Induction of apoptosis in human PC-3 cells assessed as viable cells at 0.1 uM by Annexin-V FITC staining based flow cytometry analysis (reference value: 96.8%); assay type: functional; details: read-out: Activity
[34] = target: RAF proto-oncogene serine/threonine-protein kinase (Homo sapiens, UniProt P04049); test: Inhibition of RAF1 (unknown origin)
[35] = target: Mitogen-activated protein kinase 8 (Homo sapiens, UniProt P45983); test: Inhibition of JNK1 (unknown origin)
Chain of Mitogen-activated protein kinase 8 (P45983 whole entry): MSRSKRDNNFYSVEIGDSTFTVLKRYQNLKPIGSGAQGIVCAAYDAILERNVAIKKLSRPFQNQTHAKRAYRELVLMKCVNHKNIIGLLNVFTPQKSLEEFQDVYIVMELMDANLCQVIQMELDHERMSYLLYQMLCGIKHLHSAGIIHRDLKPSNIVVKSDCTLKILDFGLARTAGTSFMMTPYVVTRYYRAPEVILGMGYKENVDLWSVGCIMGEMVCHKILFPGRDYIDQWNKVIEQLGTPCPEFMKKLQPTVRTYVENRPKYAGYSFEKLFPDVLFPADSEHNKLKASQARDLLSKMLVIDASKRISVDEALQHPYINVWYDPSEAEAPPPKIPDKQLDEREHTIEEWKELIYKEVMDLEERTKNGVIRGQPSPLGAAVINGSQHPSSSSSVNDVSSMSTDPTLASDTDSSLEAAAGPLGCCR

PC-3 [36] = test: Induction of apoptosis in human PC-3 cells assessed as early apoptotic cells at 0.1 uM by Annexin-V FITC staining based flow cytometry analysis (reference value: 1.51%); assay type: functional

COc1ccc(/C=C\c2cc(OC)c(OC)c(OC)c2)cc1NC(=O)CCC(=O)N[C@@H](CCCNC(=N)N)C(=O)O
inhibition (Tubulin (Homo sapiens)): Dose-Dependent Effect | Activity (PC-3 [1]): Active | Activity (PC-3 [2]): Dose-Dependent Effect | Activity (PC-3 [3]): 0.12% | AUC at 24 h [4]: 4300 ng·h/mL | IC50 [5]: > 10 µM | IC50 [6]: > 10 µM | IC50 (PC-3 [7]): 0.02 µM | IC50 [8]: > 10 µM | IC50 [9]: > 10 µM | inhibition [10]: 50% | IC50 [11]: > 10 µM | half-life [12]: 13.8 h | Activity (PC-3 [13]): 14.02% | IC50 [14]: > 10 µM | Activity (PC-3 [15]): 6.04% | Activity (PC-3 [16]): 84.75% | IC50 (CDK6/cyclin D3): > 10 µM | IC50 [17]: > 10 µM | IC50 (Tubulin): 0.71 µM | Activity (HUVEC [18]): Active | IC50 at 48 h [19]: > 10 µM | IC50 [20]: > 10 µM | IC50 (Activin receptor type-1): > 10 µM | IC50 [21]: > 10 µM | IC50 [22]: > 10 µM | Activity (PC-3 [23]): Active | Activity (PC-3 [24]): 0.16% | IC50 [25]: > 10 µM | Activity (HUVEC [26]): Active | IC50 [27]: > 10 µM | Activity (PC-3 [28]): Active | Activity [29]: Non-Toxic | Activity [30]: Non-Toxic | IC50 [31]: > 10 µM | IC50 [32]: > 10 µM | viability at 0.1 µM (PC-3 [33]): 93.6% | IC50 [34]: > 10 µM | IC50 [35]: > 10 µM | Activity (PC-3 [36]): 1.84%
